{"source": "paper PMC9653409", "about": "“Generative deep learning enables the discovery of a potent and selective RIPK1 inhibitor” (Nature Communications, 2022)", "key": {"IL-6": {"test_system": "IL-6", "assay": "DSS-induced IBD mouse model: IL-6 in cultured colon supernatant (ELISA)", "type": "in vivo, C57BL/6 female mice", "procedure": "DSS (3% w/v) was administered in drinking water ad libitum for 7 d (from day 0 to day 7). DSS solution was replaced three times on day 2, day 4, and day 6. […] Three mice in each group were killed at random on day 7, and distal colon tissues were collected for analysis. The mice weight and survival rate were recorded daily.\nIn the TNFα-induced SIRS model, at 6 h after TNFα injection, four mice in each group were killed at random, and the serums were collected, the serum concentrations of IL-1β and IL-6 were measured using ELISA kits (Neobioscience Technology) according to manufacturer’s instructions. […] The supernatant was collected by sequential centrifugation at 500 × g for 10 min and 3000 × g for 10 min. The concentrations of cytokines TNFα, IL-6, and IL-1β were measured using ELISA kits (Neobioscience Technology)."}, "[1]": {"test_system": "RIPK1 knockout HT29 cells", "assay": "TSZ treatment of RIPK1 knockout HT29 cells (CCK8)", "type": "cell-based", "conditions": "Homo sapiens, HT-29, read-out: Cell Viability (%) Average", "procedure": "(§1) Cell necroptosis protection assays were performed in 96-well cell culture plates. Cells were plated in each well and cultured at 37 °C overnight. […] The cell survival rate was determined using a CCK8 cell viability assay kit and CLARIOstar (v5.61). […] All experiments were performed at least two times, and each EC50 value was expressed as mean ± standard deviation (SD).\nThe lentiCRISPRv2 vector targeting RIPK1 (sgRNA, 5’- […]-3’) was constructed by the Azenta company. HEK 293 T cells were transfected with lentiCRISPRv2 targeting RIPK1 and empty vector using Hieff Trans^TM Liposomal Transfection Reagent (Yeasen), respectively. […] The concentrated viruses were added to HT29 cells along with 8 μg/mL of polybrene (Yeasen) to enhance transfection efficiency. The infection assay was repeated in the next day under the same conditions. Finally, HT29 cells were screened with 3 μg/mL puromycin. Western blot analysis was used to confirm the RIPK1 deletion."}, "L929 cells": {"test_system": "L929 cells", "assay": "TZ-induced L929 cell necroptosis model (CCK8)", "type": "cell-based", "conditions": "Mus musculus", "procedure": "as §1"}, "RIPK1": {"target": "T1, RIPK1 (Homo sapiens, UniProt Q13546)", "T1 sequence (Q13546 1-671)": "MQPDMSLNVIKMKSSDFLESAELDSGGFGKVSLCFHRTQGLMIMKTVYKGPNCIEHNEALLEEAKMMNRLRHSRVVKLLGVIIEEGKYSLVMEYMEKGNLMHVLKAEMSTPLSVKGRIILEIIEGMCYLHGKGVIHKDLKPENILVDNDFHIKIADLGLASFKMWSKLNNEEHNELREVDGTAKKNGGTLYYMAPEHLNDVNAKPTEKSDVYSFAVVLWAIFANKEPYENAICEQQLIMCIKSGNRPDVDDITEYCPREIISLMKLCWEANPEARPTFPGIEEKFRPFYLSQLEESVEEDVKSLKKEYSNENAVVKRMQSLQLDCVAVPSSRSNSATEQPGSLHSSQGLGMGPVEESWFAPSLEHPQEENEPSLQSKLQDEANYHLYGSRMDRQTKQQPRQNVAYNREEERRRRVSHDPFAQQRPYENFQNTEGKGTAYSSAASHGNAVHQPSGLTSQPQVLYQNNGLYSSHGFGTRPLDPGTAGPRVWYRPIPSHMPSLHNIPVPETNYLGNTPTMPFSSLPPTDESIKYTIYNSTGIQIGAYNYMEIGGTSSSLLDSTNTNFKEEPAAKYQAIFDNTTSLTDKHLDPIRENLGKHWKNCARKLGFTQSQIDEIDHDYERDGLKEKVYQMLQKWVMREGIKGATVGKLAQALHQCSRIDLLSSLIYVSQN", "assay": "RIPK1 kinase assay, ADP-Glo assay", "type": "biochemical"}}, "note": "“And” between values parts separate entries of the source, which are not always exact repeats. Equal values may be shown once.", "data": [{"smiles": "CC(C)C(=O)Nc1nc2cc(-c3ccc4c(c3)c(C(=O)NC(C)c3ccccc3)cn4C)ccn2n1", "note": "(centres unmarked) [RI-962]", "values": [{"measurement": "content of IL-6 in cultured colonic tissue supernatants", "setting": "IL-6; 40 mg/kg i.p., day 7", "result": "substantially reduced"}, {"measurement": "IL-6", "setting": "IL-6; Figure 9i, individual replicates 1-3", "result": "994.1 pg/mL and 876.1 pg/mL and 967.8 pg/mL"}, {"measurement": "viability at 0.000169 µM", "setting": "[1]; 0.000169 μM + TSZ", "result": 89.4, "unit": "%"}, {"measurement": "viability at 0.000508 µM", "setting": "[1]; 0.000508 μM + TSZ", "result": 103, "unit": "%"}, {"measurement": "viability at 0.001524 µM", "setting": "[1]; 0.001524 μM + TSZ", "result": 87.5, "unit": "%"}, {"measurement": "viability at 0.004572 µM", "setting": "[1]; 0.004572 μM + TSZ", "result": 87.3, "unit": "%"}, {"measurement": "viability at 0.013717 µM", "setting": "[1]; 0.013717 μM + TSZ", "result": 90.8, "unit": "%"}, {"measurement": "viability at 0.041152 µM", "setting": "[1]; 0.041152 μM + TSZ", "result": 90.1, "unit": "%"}, {"measurement": "viability at 0.123457 µM", "setting": "[1]; 0.123457 μM + TSZ", "result": 94.4, "unit": "%"}, {"measurement": "viability at 0.37037 µM", "setting": "[1]; 0.370370 μM + TSZ", "result": 104, "unit": "%"}, {"measurement": "viability at 1.11111 µM", "setting": "[1]; 1.111111 μM + TSZ", "result": 97.9, "unit": "%"}, {"measurement": "viability at 56 pM", "setting": "L929 cells; L929, 0.000056 μM", "result": 19.1, "unit": "%"}, {"measurement": "viability at 0.000169 µM", "setting": "L929 cells; L929, 0.000169 μM", "result": 22.9, "unit": "%"}, {"measurement": "viability at 0.000508 µM", "setting": "L929 cells; L929, 0.000508 μM", "result": 24.8, "unit": "%"}, {"measurement": "viability at 0.001524 µM", "setting": "L929 cells; L929, 0.001524 μM", "result": 35.2, "unit": "%"}, {"measurement": "viability at 0.004572 µM", "setting": "L929 cells; L929, 0.004572 μM", "result": 62.2, "unit": "%"}, {"measurement": "viability at 0.013717 µM", "setting": "L929 cells; L929, 0.013717 μM", "result": 83.1, "unit": "%"}, {"measurement": "viability at 0.041152 µM", "setting": "L929 cells; L929, 0.041152 μM", "result": 89.4, "unit": "%"}, {"measurement": "viability at 0.123457 µM", "setting": "L929 cells; L929, 0.123457 μM", "result": 105, "unit": "%"}, {"measurement": "viability at 0.37037 µM", "setting": "L929 cells; L929, 0.370370 μM", "result": 98.5, "unit": "%"}, {"measurement": "viability at 1.11111 µM", "setting": "L929 cells; L929, 1.111111 μM", "result": 103, "unit": "%"}, {"measurement": "viability at 3.33333 µM", "setting": "L929 cells; L929, 3.333333 μM", "result": 99.1, "unit": "%"}, {"measurement": "viability at 10 µM", "setting": "L929 cells; L929, 10.000000 μM", "result": 91.6, "unit": "%"}, {"measurement": "EC50", "setting": "L929 cells; L929 treated with TZ, 24 h", "result": 4.2, "unit": "nM"}, {"measurement": "inhibition at 0.000152416 µM", "setting": "RIPK1; 0.152416 nM", "result": -7.04, "unit": "%"}, {"measurement": "inhibition at 0.000457247 µM", "setting": "RIPK1; 0.457247 nM", "result": -2.09, "unit": "%"}, {"measurement": "inhibition at 0.00137174 µM", "setting": "RIPK1; 1.371742 nM", "result": 5.59, "unit": "%"}, {"measurement": "inhibition at 0.00411523 µM", "setting": "RIPK1; 4.115226 nM", "result": 34.1, "unit": "%"}, {"measurement": "inhibition at 0.0123457 µM", "setting": "RIPK1; 12.345679 nM", "result": 80, "unit": "%"}, {"measurement": "inhibition at 0.037037 µM", "setting": "RIPK1; 37.037037 nM", "result": 94, "unit": "%"}, {"measurement": "inhibition at 0.111111 µM", "setting": "RIPK1; 111.111111 nM", "result": 95.3, "unit": "%"}, {"measurement": "inhibition at 0.333333 µM", "setting": "RIPK1; 333.333333 nM", "result": 96.3, "unit": "%"}, {"measurement": "inhibition at 1 µM", "setting": "RIPK1; 1000.000000 nM", "result": 98.1, "unit": "%"}, {"measurement": "inhibition at 3 µM", "setting": "RIPK1; 3000.000000 nM", "result": 99.3, "unit": "%"}, {"measurement": "IC50", "setting": "RIPK1; ADP-Glo assay", "result": 5.9, "unit": "nM"}]}]}
